Assay results taken from paper PMC8250858, “A Systematic Study of the Stability, Safety, and Efficacy of the de novo Designed Antimicrobial Peptide PepD2 and Its Modified Derivatives Against Acinetobacter baumannii” (Frontiers in Microbiology, 2021).
Values after ≈ are worked out from the molar mass of the structure shown. Where two headings read alike, the source gives them in different places. Non-standard residues stand in square brackets, D forms with d. Residues, ends and D or L forms follow the SMILES beside them. *: point of attachment. Stearoyl = CCCCCCCCCCCCCCCCCC(=O)*; Palmitoyl = CCCCCCCCCCCCCCCC(=O)*; Myristoyl = CCCCCCCCCCCCCC(=O)*; Octanoyl = CCCCCCCC(=O)*; Orn = NCCC[C@H](N)C(=O)O; Hexanoyl = CCCCCC(=O)*; Butyryl = CCCC(=O)*

What was measured:
[1] = Hemolytic assay; type: cell-based, rat
Method: The blood cells were washed three times with PBS, where the volume of PBS was the same as that of the original blood, by gently turning the centrifuge tube upside down. After washing, ten microliters of blood cells were diluted 2,000-fold in PBS to count the cells. Finally, red blood cells were diluted to 5 × 10^8 cells/mL in PBS. Peptides were dissolved in water and filtered through a 0.2-μm filter to make a stock solution. The peptide concentration was quantitated by the UV280. The peptide solution was diluted in PBS to different concentrations (five times the tested concentrations). Twenty microliters of the peptide in PBS was mixed with 80 μL of red blood cell solution in a 96-well plate (V-bottom). The final peptide concentration was 16–256 μg/mL. In the positive control group, 20 μL of 5% Triton X-100 was added to the red blood cell solution for a final Triton X-100 concentration of 1%. For the negative control group, 20 μL of PBS solution was added. The 96-well plate was incubated at 37°C for 45 min. After centrifuging the 96-well plate at 1,500 × g for 5 min, 30 μL of the supernatant was mixed with 100 μL of deionized water in a 96-well plate (flat bottom). The concentration of heme in each well was measured by the UV405 using an Infinite M1000 pro (Tecan Austria GmbH, Austria). The hemolytic activity was calculated using the following formula. Hemolyticactivity=[(F-F0)/(Ft-F0)]×100% F is the UV405 of the peptide-treated sample F0 is the UV405 of the sample without peptide (negative control) Ft is the UV405 of the Triton-treated sample (positive control)

[2] = tested on: A. baumannii ATCC 17978; type: cell-based, Acinetobacter baumannii
Method: Following CLSI guideline M07-A11, single bacterial colonies of A. baumannii ATCC 17978 grown on Müller–Hinton agar (MHA) plates were picked and inoculated in 4 mL of Müller–Hinton broth (MHB) at 37°C and shaken at 180 rpm for 4∼6 h. The bacterial broth was diluted in the same medium to give a cell density of 1∼2 × 10^8 CFU/mL (OD600 = 0.38∼0.4 for A. baumannii) (Supplementary Figure 1; [Dillon et al., 2020]). Then, the broth was diluted 20-fold. Peptides were dissolved in water and filtered through a 0.2-μm filter to make a stock solution. The peptide concentration was quantified by the UV280. Then, the peptide solution was serially diluted in MHB to final peptide concentrations of 1, 2, 4, 8, 16, and 32 μg/mL. One hundred microliters of serially diluted peptide and 10 μL of bacterial culture were mixed in a 96-well polystyrene plate. Each well contained approximately 5 × 10^5 CFU/mL. The positive control was a mixture of 100 μL of MHB and 10 μL of the bacterial culture. The negative control was 110 μL of MHB. The plates were incubated at 37°C without shaking. […] The bacterium-peptide mixtures (the mixture without visible growth and the mixture containing a two-fold […] peptide concentration than the mixture without growth), positive control, and negative control (3 μL each) were spotted on an MHA plate and incubated at 37°C for 24 h. The MBC was determined as the lowest peptide concentration at which no colonies formed.
The MIC and MBC of our designed peptides against A. baumannii were obtained by using the broth microdilution method in the CLSI protocol. The bacterial cell number was carefully counted, and a final cell density of 5 × 10^5 CFU/mL in each well was used in the MIC test (Supplementary Figure 1). The minimal peptide concentration at which no bacterial growth was observed was taken as the MIC value. The culture after peptide treatment was spotted on an MHA plate, and the peptide concentration that could kill all the bacteria was defined as the MBC. The MIC/MBC and hemolytic activity of these peptides are shown and compared in Figure 1.

[3] = tested on: HEK293 cells; type: cell-based, human
Method: Cell viability assays were performed by using the CellTiter 96® AQueous Non-Radioactive Cell Proliferation Assay (Promega, United States), in which 3-(4,5-dimethylthiazol-2-yl)-5-(3-carboxymethoxyphenyl)-2-(4-sulfophenyl)-2H-tetrazolium salt (MTS) can be reduced to purple-colored formazan by intact cells. […] The test peptide was dissolved in water and filtered through a 0.2-μm filter. The peptide concentration was quantitated by the UV280 to make a 5,120 μg/mL stock solution and then serially diluted in serum-free DMEM. On the second day, the medium was replaced with 100 μL of serum-free DMEM containing different peptide concentrations and incubated for 1 or 24 h. Serum-free DMEM without peptide was used as a negative control and medium containing 1% Triton X-100 was used as a positive control. One milligram of MTS powder was dissolved in 0.5 mL of Dulbecco’s phosphate-buffered saline (DPBS). The MTS solution was mixed with one-twentieth of a phenazine methosulfate (PMS) solution ([…]). To each well, 20 μL of the MTS/PMS solution was added. After 3 h, the absorbance was measured with an Infinite M1000 pro (Tecan Austria GmbH, Austria) at a wavelength of 490 nm. Cell viability was calculated using the following equation. Cellviability=[(A-Ap)/(An-Ap)]×100% A is the UV490 of the peptide-treated sample An is the UV490 of the sample without peptide (negative control) Ap is the UV490 of the Triton-treated sample (positive control)

[4] = in vitro; type: in vitro ADME, rat; settings: for half-life at 0.6 mg/mL: rat plasma, room temperature
Method: EDTA-treated rat whole blood was centrifuged at 4°C and 840 × g for 5 min, and then the blood cells were removed ([[…] et al., 2019]). The supernatant was placed in an Eppendorf tube and centrifuged at 4°C and 13,000 rpm for 10 min to remove lipids (white precipitate). The supernatant was filtered through a 0.2-μm filter. The peptide was dissolved in water and filtered through a 0.2-μm filter. The peptide concentration was quantified by the UV280 to make a 1 mg/mL stock solution. […] At the indicated time, the peptide was analyzed by HPLC with a C18 column using a linear gradient of 20-65% B over 15 min. Solution A: 5% acetonitrile plus 0.1% trifluoroacetic acid in water; solution B: 0.1% trifluoroacetic acid in acetonitrile.

[5] = tested on: A. baumannii 19606; design: method as in Feng et al., 2013; settings: ref Feng et al., 2013; cited from earlier work
[6] = tested on: A. baumannii; design: method as in Sato et al., 2018; settings: ref Sato et al., 2018; cited from earlier work
[7] = rat red blood cells, 256 μg/mL peptide, 37°C 45 min, read-out: Hemolysis (%) at 256 μg/mL

Row | Compound | hemolysis at 45 min, 256 μg/mL ([1]; rat) [%] | MBC A. baumannii 17978 ([2]; ATCC 17978, 24 h) | further results
1 | CCCCCCCCCCCCCC(=O)N[C@@H](Cc1c[nH]c2ccccc12)C(=O)N[C@@H](CCCCN)C(=O)N[C@@H](CCCCN)C(=O)N[C@@H](CC(C)C)C(=O)N[C@@H](CCCCN)C(=O)N[C@@H](CCCCN)C(=O)N[C@@H](CC(C)C)C(=O)N[C@@H](CC(C)C)C(=O)N[C@@H](CCCCN)C(=O)N[C@@H](CCCCN)C(=O)N[C@@H](CC(C)C)C(=O)N[C@@H](CCCCN)C(=O)N[C@@H](CCCCN)C(=O)N[C@@H](CC(C)C)C(N)=O [pepD2M] (Myristoyl-WKKLKKLLKKLKKL-NH2) | 93.6 | – | –
2 | CCCCCCCCCCCCCCCC(=O)N[C@@H](Cc1c[nH]c2ccccc12)C(=O)N[C@@H](CCCCN)C(=O)N[C@@H](CCCCN)C(=O)N[C@@H](CC(C)C)C(=O)N[C@@H](CCCCN)C(=O)N[C@@H](CCCCN)C(=O)N[C@@H](CC(C)C)C(=O)N[C@@H](CC(C)C)C(=O)N[C@@H](CCCCN)C(=O)N[C@@H](CCCCN)C(=O)N[C@@H](CC(C)C)C(=O)N[C@@H](CCCCN)C(=O)N[C@@H](CCCCN)C(=O)N[C@@H](CC(C)C)C(N)=O [pepD2P] (Palmitoyl-WKKLKKLLKKLKKL-NH2) | 83.5 | – | –
3 | CCCCCCCCCCCCCCCCCC(=O)N[C@@H](Cc1c[nH]c2ccccc12)C(=O)N[C@@H](CCCCN)C(=O)N[C@@H](CCCCN)C(=O)N[C@@H](CC(C)C)C(=O)N[C@@H](CCCCN)C(=O)N[C@@H](CCCCN)C(=O)N[C@@H](CC(C)C)C(=O)N[C@@H](CC(C)C)C(=O)N[C@@H](CCCCN)C(=O)N[C@@H](CCCCN)C(=O)N[C@@H](CC(C)C)C(=O)N[C@@H](CCCCN)C(=O)N[C@@H](CCCCN)C(=O)N[C@@H](CC(C)C)C(N)=O [pepD2S] (Stearoyl-WKKLKKLLKKLKKL-NH2) | 60.7 | – | –
4 | CCCC(=O)N[C@@H](Cc1c[nH]c2ccccc12)C(=O)N[C@@H](CCCCN)C(=O)N[C@@H](CCCCN)C(=O)N[C@@H](CC(C)C)C(=O)N[C@@H](CCCCN)C(=O)N[C@@H](CCCCN)C(=O)N[C@@H](CC(C)C)C(=O)N[C@@H](CC(C)C)C(=O)N[C@@H](CCCCN)C(=O)N[C@@H](CCCCN)C(=O)N[C@@H](CC(C)C)C(N)=O [pepD3B] (Butyryl-WKKLKKLLKKL-NH2) | 7.89 | 8 µg/mL (≈ 5.35 µM) | –
5 | CCCCCC(=O)N[C@@H](Cc1c[nH]c2ccccc12)C(=O)N[C@@H](CCCCN)C(=O)N[C@@H](CCCCN)C(=O)N[C@@H](CC(C)C)C(=O)N[C@@H](CCCCN)C(=O)N[C@@H](CCCCN)C(=O)N[C@@H](CC(C)C)C(=O)N[C@@H](CC(C)C)C(=O)N[C@@H](CCCCN)C(=O)N[C@@H](CCCCN)C(=O)N[C@@H](CC(C)C)C(N)=O [pepD3H] (Hexanoyl-WKKLKKLLKKL-NH2) | 54.1 | 8 µg/mL (≈ 5.25 µM) | –
6 | CCCCCCCC(=O)N[C@@H](Cc1c[nH]c2ccccc12)C(=O)N[C@@H](CCCCN)C(=O)N[C@@H](CCCCN)C(=O)N[C@@H](CC(C)C)C(=O)N[C@@H](CCCCN)C(=O)N[C@@H](CCCCN)C(=O)N[C@@H](CC(C)C)C(=O)N[C@@H](CC(C)C)C(=O)N[C@@H](CCCCN)C(=O)N[C@@H](CCCCN)C(=O)N[C@@H](CC(C)C)C(N)=O [pepD3O] (Octanoyl-WKKLKKLLKKL-NH2) | 86 | 8 µg/mL (≈ 5.16 µM) | –
7 | CC(=O)N[C@@H](Cc1c[nH]c2ccccc12)C(=O)N[C@@H](CCCN)C(=O)N[C@@H](CCCN)C(=O)N[C@@H](CC(C)C)C(=O)N[C@@H](CCCN)C(=O)N[C@@H](CCCN)C(=O)N[C@@H](CC(C)C)C(=O)N[C@@H](CC(C)C)C(=O)N[C@@H](CCCN)C(=O)N[C@@H](CCCN)C(=O)N[C@@H](CC(C)C)C(=O)N[C@@H](CCCN)C(=O)N[C@@H](CCCN)C(=O)N[C@@H](CC(C)C)C(N)=O [pepO2, Ac-WOOLOOLLOOLOOL-NH2] (Ac-W[Orn][Orn]L[Orn][Orn]LL[Orn][Orn]L[Orn][Orn]L-NH2) | 0.23 | 8 µg/mL (≈ 4.64 µM) | –
8 | CC(=O)N[C@@H](Cc1c[nH]c2ccccc12)C(=O)N[C@H](CCCCN)C(=O)N[C@H](CCCCN)C(=O)N[C@H](CC(C)C)C(=O)N[C@H](CCCCN)C(=O)N[C@H](CCCCN)C(=O)N[C@H](CC(C)C)C(=O)N[C@H](CC(C)C)C(=O)N[C@H](CCCCN)C(=O)N[C@H](CCCCN)C(=O)N[C@H](CC(C)C)C(=O)N[C@H](CCCCN)C(=O)N[C@H](CCCCN)C(=O)N[C@H](CC(C)C)C(N)=O [pepdD2, Ac-Wkklkkllkklkkl-NH2] (Ac-W[dK][dK][dL][dK][dK][dL][dL][dK][dK][dL][dK][dK][dL]-NH2) | – | 8 µg/mL (≈ 4.36 µM) | hemolysis at 45 min, 256 μg/mL [1, 7]: 2.9%; HEK293 IC50 ([3]; 1 h): 40.2 µg/mL; HEK293 IC50 ([3]; 24 h): 20.6 µg/mL; Extension of peptide half-life in plasma [4]: more than 12 fold; remaining at 72 h, 0.6 mg/mL ([4]; rat, plasma): ~90%; half-life at 0.6 mg/mL ([4]; rat, plasma): 290 h
9 | Ac-WKKLKKLLKKL-NH2 [pepD3] | – | 8 µg/mL | hemolysis at 45 min, 256 μg/mL [1, 7]: 3.15%; HEK293 IC50 ([3]; 1 h): 49.5 µg/mL; HEK293 IC50 ([3]; 24 h): 68.1 µg/mL; half-life at 0.6 mg/mL ([4]; rat, plasma): 19.1 h
10 | Ac-WKKLKKLLKKLKKL-NH2 [pepD2] | – | 8/8 μg/mL | MIC A. baumannii 17978 ([2]; MHB, 20 h, 5 × 10^5 CFU/mL): 8 µg/mL; MBC A. baumannii 17978 ([2]; spotted on MHA plate, 24 h): 8 µg/mL; hemolysis at 45 min, 256 μg/mL [1, 7]: 9.6%; HEK293 IC50 ([3]; 1 h): 29.1 µg/mL; HEK293 IC50 ([3]; 24 h): 37.3 µg/mL; half-life at 0.6 mg/mL ([4]; rat, plasma): 23.1 h
11 | Ac-WKKVKKVVKKVKKV-NH2 [pepV2] | 0.31 | 32 µg/mL | –
12 | Ac-WRRLRRLLRRLRRL-NH2 [pepR2] | 106 | 8 µg/mL | –
13 | LL-37: natural human antimicrobial peptide | – | – | MIC against A. baumannii 19606 [5]: 16 µg/mL
14 | colistin sulfate | – | – | MIC against A. baumannii [6]: 2 µg/mL
